Reference: patent US10021880B2, “Diarylimidazole compound and harmful organism control agent” (Nippon Soda Co., Ltd., priority 2014, dated 2018)

Key:
Tetranychus kanzawai = assay: Efficacy test against Tetranychus kanzawai (spray on kidney bean seedlings); type: in vivo; details: 240 h, sprayed on kidney bean seedlings, adult mortality 10 days after spraying, 25° C., humidity 65%, read-out: mortality rate against Tetranychus kanzawai
Experimental: (§1) 5 parts of the compound of the present invention, 93.6 parts of dimethyl formamide and 1.4 parts of polyoxyethylene alkylaryl ether were mixed and dissolved to obtain emulsion (I) including 5% of active ingredient.
Kidney bean plants were raised in No. 3 pots and the primary leaves were inoculated with 10 adult female Tetranychus kanzawai. Emulation (I) was diluted with water so that the concentration of the compound of the present invention reaches 125 ppm, followed by spraying the diluted liquid on the kidney bean seedlings. The kidney bean seedlings were then placed in a temperature-controlled room with a temperature of 25° C. and humidity of 65%. Mortality of the adult Tetranychus kanzawai was investigated after 10 days were passed from the spraying, and the insect mortality rate of Tetranychus kanzawai was calculated. The test was repeated twice.

Musca domestica = assay: Efficacy test against Musca domestica (treated cube sugar); type: in vivo; details: 100 ppm on cube sugar, after 24 hours, 25° C.
Experimental: The compound of the present invention was diluted with acetone, followed by dropping to 1 g of cube sugar so that the concentration reaches to 100 ppm. The cube sugar was placed in a plastic cup and 10 adult female Musca domestica were released therein, followed by putting the lid on the cup. The cup was kept at 25° C., the mortality was investigated after 24 hours was passed from the releasing of Musca domestica and the insect mortality rate was calculated by the following equation. The test was repeated twice. Insect mortality rate (%)=(number of dead insects/number of sample insects)×100

Culex pipiens = assay: Efficacy test against Culex pipiens (larvae in chemical solution); type: in vivo; details: 2 ppm in water, after 1 day
Experimental: as §1
Emulsion (I) was diluted with water so that the concentration of the compound of the present invention reaches 2 ppm to prepare a chemical solution for test. 20 first-instar larvae of Culex pipiens were released into 100 ml of the chemical solution for test, then the number of dead insects was calculated after 1 day was passed, and the insect mortality rate was calculated by the following equation. The test was repeated twice. Insect mortality rate (%)=(number of dead insects/number of sample insects)×100

Aphis gossypii [1] = assay: Efficacy test against Aphis gossypii (root-dipping test); type: in vivo; details: 8 ppm in hydroponic liquid, cucumber, nymphs, after 6 days
Description: as §1
Cucumber plants raised in No. 3 pots were pulled out from the pots, then the soil attached to the roots was washed with tap water, followed by hydroponic-cultivating the cucumber plants by soaking the roots in tap water. The cucumber seedlings were inoculated with nymphs of Aphis gossypii. Emulsion (I) was diluted with water to obtain a diluted liquid with a concentration of 8 ppm of the compound of the present invention. The tap water was replaced with the diluted liquid, and then the hydrophonic-cultivation was continued in a temperature-controlled room with a temperature was 25° C. and humidity of 60%.
After 6 days were passed from the hydrophonic-cultivation in the diluted liquid, mortality of Aphis gossypii was investigated and the insect mortality rate was calculated. The test was repeated twice.

Plutella xylostella = assay: Efficacy test against Plutella xylostella (cabbage leaf dip); type: in vivo; details: foliar, 72 h, cabbage leaves soaked 30 seconds, second-instar larvae, after 3 days, 25° C., read-out: mortality rate against Plutella xylostella
Experimental: as §1
(§2) Emulsion (I) was diluted with water so that the concentration of the compound of the present invention reaches 125 ppm. Cabbage leaves were soaked in the diluted liquid for 30 seconds. Then the cabbage leaves were put on Petri dishes, followed by inoculating 5 second-instar larvae of Plutella xylostella. The Petri dishes were placed in a temperature-controlled room with a temperature was 25° C. and humidity of 60%. Mortality was investigated after 3 days were passed, and the insect mortality rate was calculated. The test was repeated twice.

Pseudaletia separate = assay: Efficacy test against Pseudaletia separate (maize leaf dip); type: in vivo; details: foliar, 144 h, maize leaves soaked 30 seconds, second-instar larvae, after 6 days, 25° C., read-out: insect mortality rate against Pseudaletia separate
Experimental: as §1
as §2, with “ppm. Maize” for “ppm. Cabbage”, “the maize” for “the cabbage”, “of Pseudaletia separate.” for “of Plutella xylostella.”, “temperature of” for “temperature was”, “after 6” for “after 3”

Aphis gossypii [2] = assay: Efficacy test against Aphis gossypii (spray on cucumber seedlings); type: in vivo; details: sprayed on cucumber seedlings inoculated with nymphs, 4 days after spraying, read-out: mortality rate against Aphis gossypii
Experimental: as §1
Cucumber plants were raised in No. 3 pots and the first true leaves were inoculated with nymphs of Aphis gossypii. Emulation (I) was diluted with water so that the concentration of the compound of the present invention reaches 125 ppm, followed by spraying the diluted liquid on the cucumber seedlings. The cucumber seedlings were then placed in a temperature-controlled room with a temperature of 25° C. and humidity of 60%. Mortality was investigated after 4 days were passed from the spraying, and the insect mortality rate of Aphis gossypii was calculated. The test was repeated twice.

Spodoptera litura = assay: Efficacy test against Spodoptera litura (cabbage leaf dip); type: in vivo; details: foliar, 144 h, cabbage leaves soaked 30 seconds, second-instar larvae, after 6 days, 25° C., read-out: insect mortality rate against Spodoptera litura
Experimental: as §1
as §2, with “Emulation (I)” for “Emulsion (I)”, “of Spodoptera litura.” for “of Plutella xylostella.”, “after 6” for “after 3”

Compound	mortality at 125 ppm (Plutella xylostella)	mortality at 125 ppm (Pseudaletia separate)	mortality at 125 ppm (Spodoptera litura)	also measured
Cn1c(-c2ccc(C(F)(F)F)cc2)cnc1-c1ccc(C(F)(F)F)cc1F [Compound 1-4, 2-(2-fluoro-4-(trifluoromethyl)phenyl)-1-methyl-5-(4-(trifluoromethyl)phenyl)-1H-imidazole]				mortality at 125 ppm (Tetranychus kanzawai): ≥ 90%
CCS(=O)(=O)c1cc(C(F)(F)F)ccc1-c1ncc(-c2ccc(OC(F)(F)F)cc2)n1C [Compound 1-35]				insect mortality rate against the adult female Musca domestica (Musca domestica): 100%; insect mortality rate against the first-instar larvae of Culex pipiens (Culex pipiens): 100%
CCS(=O)(=O)c1cnccc1-c1ncc(-c2ccc(C(F)(F)F)cc2)n1C [Compound 3-1]				insect mortality rate (Aphis gossypii, root-dipping test) (Aphis gossypii [1]): ≥ 80%
CCS(=O)(=O)c1cc(C(F)(F)F)ccc1-c1ncc(-c2ccc(C(F)(F)F)cc2)n1C [Compound 1-3, 2-(2-(ethylsulfonyl)-4-(trifluoromethyl)phenyl)-1-methyl-5-(4-(trifluoromethyl)phenyl)-1H-imidazole]	≥ 80%	≥ 80%	≥ 80%	mortality at 125 ppm (Aphis gossypii [2]): ≥ 80%
Cn1c(-c2ccc(C(F)(F)F)cc2)c[n+]([O-])c1-c1ccc(C(F)(F)F)cc1F				melting point: 229 to 231 °C
CCSc1cc(C(F)(F)F)ccc1-c1ncc(-c2ccc(C(F)(F)F)cc2)n1C [Compound 1-7, 2-(2-(ethylsulfanyl)-4-(trifluoromethyl)phenyl)-1-methyl-5-(4-(trifluoromethyl)phenyl)-1H-imidazole]	≥ 80%	≥ 80%	≥ 80%	
